Test results from publication PMC9544108 (Chemmedchem, 2022).
Numbered stars: 1 amine (or outer) side, 2 acyl side, 3 side chain; on linkers, the order of the positions; unused ones are H or OH. Square brackets hold non-standard residues; d marks the D form. Peptide text beside a SMILES is read from it. γGlu = O=C(O)[C@H](CCC(=O)[*:2])N[*:1]; βAsp = O=C(O)[C@H](CC(=O)[*:2])N[*:1]; Cya = N[C@@H](CS(=O)(=O)O)C(=O)O

Tests used:
HT-29 cells [1] = conditions: HT-29, 0.02-1.0 mM, 23 h, crystal violet, no Pb
Method: We then tested the effect of 8 and 9 alone on cell viability compared with the two benchmark drugs.
96-well plates were prepared such that every well contained 10,000 HT-29 cells in 100 µL
medium, and the cells were allowed to adhere for 24 h.
To all wells but the positive control wells, 10 µL of each solution of the examined peptides (0.24,
and 1.0 mM. To the positive control wells, 10 µL of H 2O were added. Each condition was
performed in triplicates. The plates were incubated at 37 °C, and 5% CO2 for 23 h, after which the
medium was removed, the wells were washed with H2O, and 50 µL of crystal violet solution[10]
(500 mg crystal violet powder in 20 mL CH3OH and 80 mL H2O) were added to each well. The
plates were gently shaken (50 rpm) for 20 min. The plates were then washed with H 2O until no
more unbound dye was observed and allowed to dry overnight. 100 µL of CH3OH were added to
each well, and the plates were gently shaken (50 rpm) for 20 min, after which their absorbance
The toxicity of each concentration of a peptide was calculated according to Equation S5:
𝑇𝑜𝑥𝑖𝑐𝑖𝑡𝑦% = 𝐴[𝑃𝑒𝑝𝑋]−𝐴[𝑏𝑙𝑎𝑛𝑘] × 100% (S5)
A[PepX] – absorbance of well in the presence of X mM of peptide
A[POS] – absorbance of well that contains no peptides

Pb-poisoned HT-29 cells [2] = assay: recovery assay of Pb-poisoned cells (crystal violet); type: cell-based, human; conditions: HT-29, Pb(NO3)2 0.2 mM, further 23 h; for viability of Pb-poisoned cells relative to the negative control (recovery): peptide added 1 h later, up to 1 mM (5 equiv.), at least 3 independent experiments; for recovery of Pb-poisoned cells, in words: compound 0.02-1 mM added 1 h later
Method: Human HT‐29 cells were used to investigate the peptides′ detoxification capabilities.[17, 18, 22] Adhered cells were poisoned with Pb(NO3)2 (200 μM) and 1 h later treated with various concentrations of peptides[28] and of the benchmark drugs, ranging from 20 μM to 1 mM that are equal to 0.1–5 equivalents compared with the Pb(II) concentration. After an incubation of 23 h, the cells were washed and quantified with the crystal violet assay.[22, 29] Each experiment included both positive and negative controls, which were either cells left untreated with both metal ions and peptides or only poisoned with Pb(NO3)2, respectively. Each dataset was then compared to the negative control to report the peptide recovery abilities (Figures 3A–B and S2).
LCMS (ESI) Rt = 0.6 min, observed as [M+H]+
HT-29 cells were chosen as a representative human cell-line due to their high Pb sensitivity and as their medium, RPMI-1640, is compatible with Pb(II), inhibiting metal precipitation.
HT-29 cells were grown in 25 mM HEPES RPMI -1640 medium, supplemented with 1% L- […]
37 °C and 5% CO2. 96-well plates were prepared such that every well contain ed 10,000 cells in […]
concentration 0.2 mM). 10 µL of H2O were added to the positive control wells. 60 min after the […]
(which are 0.1, 0.25, 0.5, 1, 2 and 5 equivalents, respectively). To the positive control wells containing no metal and the negative control wells containing metal but no peptides, 10 µL of H2O were added, respectively. Each condition was performed in triplicates. […]
gently shaken (50 rpm) for 20 min. […]
dye was observed and allowed to dry overnight.
Recovery% = A[PepX]−A[blank] × 100% (S4)
A[blank] – absorbance of an empty well
Each experiment was performed on three independent repeats. Values are mean ± SD. […]
control for the recovery). Values are mean ± SD of at least 3 repeats. […]
and 1.0 mM. […] Each condition was […]

HT-29 cells [3] = assay: DCF assay, ROS production; type: cell-based, human; conditions: HT-29, peptide 1 mM, with or without Pb(II) 0.2 mM
Method: ROS production determination in the presence of Pb(II) ions […]
the cells were allowed to adhere overnight.
To all wells but the positive control wells, 5 µL of 2.2 mM Pb(NO3)2 were added (final concentration 0.2 mM). 5 µL of H2O were added to the positive control wells. 1 h after, 5 µL of 8 […]
control wells containing no metal and the negative control wel ls containing metal but no peptide, […]
removed, the wells were washed with PBS , and 50 µL of PBS were added to each well. 6.75 µL of 2',7'-dichlorodihydrofluorescein diacetate (H 2DCF-DA) (2.1 mM in DMSO) were added (final concentration 0.25 mM) and gently mixed. The plates were incubated for an additional 1 h.
Fluorescence was then measured at an excitation of 490 nm and an emission of 520 nm.
ROS production determination in the absence of Pb(II) ions […]
concentrations of 1 mM. To the positive control well s, 5 µL of H2O were added.
The plates were incu bated at 37 °C, and 5% CO2 for additional 23 h, after which the medium was […]

Pb-poisoned HT-29 cells [4] = assay: ICP-MS Pb content of cells and supernatant (mode of action); type: cell-based, human; conditions: for SN/C, ratio of Pb content in ppb in supernatants and cells: ICP-MS, three independent experiments
Method: In order to determine the mode of action of 8, by which it enables to achieve a high recovery of Pb‐poisoned HT‐29 cells, inductively coupled plasma mass spectrometry (ICP‐MS) was employed to determine the Pb content of the Pb‐poisoned cells and their respective supernatant. First, HT‐29 cells were poisoned with Pb(NO3)2 (0.2 mM) and the Pb content in the cells and in the medium was determined after 1 and 24 h.[22] The measurement after 1 h was performed to assess the Pb distribution at the time of peptide addition during the recovery experiment and the one after 24 h to reveal the distribution resulting without intervention. At both times, the fraction of intracellular Pb was low and most of the toxic metal was in the medium (Table S10). […] Next, we added 8 to the cells before and after poisoning them with Pb(II) ions to assess whether 8 prevents Pb(II) ions from entering the cells, expels them from the cells or transforms Pb(II) into a non‐toxic complex locally. […] Since treating Pb‐poisoned cells with 8 enables higher viability, despite the fact that their relative intracellular Pb content is elevated, we hypothesize that Pb crosses the cellular membrane from outside as a membrane permeable, non‐toxic Pb(II)‐8 complex.
Cells with Pb(II) ions only were analyzed after 1 or 24 h incubation with the metal salt as reference values:
To all wells, 10 µL of 2.2 mM Pb(NO3)2 were added (final concentration 0.2 mM) and the cells were incubated at 37 °C, and 5% CO2 for 1 h, after which samples were prepared for analysis by […]
Cells treated with 8 were analyzed in two sets that differed in the order of peptide and metal salt […]
After respective incubation times, the supernatants were homogenized by gently pipetting up and down and 50 µL were transferred and digested with 100 µL HNO3 (70%) for 1 h in a 15 mL tube. […] Pb in the supernatant was then quantified using ICP-MS.
Since the cells are adherent, residual supernatant was removed from each well and the cells were washed with RPMI (3x200 µL). […] Pb in the cells was then quantified using ICP-MS. […]

[5] = Ellman's test, oxidation of thiols to disulfide; type: physicochemical; conditions: 8 100 µM in H2O with 10% 1 M Tris buffer pH 8.0, RT, DTNB 300 µM, absorbance 412 nm
Method: (§1) To examine this, we used the Ellman's test,[43] where 8 was incubated in H2O, and the Ellman's reagent was added at given time points (Figure S9).[22] While 8 was started to be slightly oxidized within the first 2 h and was steadily forming disulfide bonds, after 24 h, roughly 40 % of the thiols were still reduced, enabling metal coordination within the experimental time frame of our in vitro study.
Calibration curve: to a 96-well plate with freshly-prepared solutions of Ac-Cys-OMe (12.5-200 µM) in H2O supplemented with 10% 1 M Tris buffer pH 8.0, a fresh solution of Ellman’s reagent (5,5'-dithiobis-(2-nitrobenzoic acid; DTNB; final concentration of 300 µM in H2O supplemented with 12.5 mM sodium acetate) was added. The absorbance of each well at 412 nm was then determined. The average and standard deviation within six wells containing the same AA concentration were calculated and linearly plotted using Origin software .
Seven 96-well plates were prepared identically with fresh solutions of 8 (100 µM) in H2O supplemented with 10% 1 M Tris buffer pH 8.0, where each condition is replicated in 3 wells. […] The absorbance of each well at 412 nm was then determined , and the concentration of free thiol per well was calculated according to the cal ibration curve. For each time frame, the average and standard deviation were calculated. […]

[6] = type: in vitro ADME; conditions: human blood serum (Sigma Aldrich), 100 µM peptide, 37 °C, aliquots from 0 min up to 48 h, precipitation with CH3CN:H2O 1:1, LCMS
Method: as §1
9 Stability in human blood serum
A freshly prepared solution of 8 (in H2O) was added to the human blood serum (HBS, purchased from Sigma Aldrich) to reach a final peptide concentration of 100 µM and a volume of 1 mL.
Samples were pipetted carefully up and down three times and incubated at 37 °C. Aliquots (50 µL) were taken periodically, starting from the addition of the serum (0 min) and continuing after 1 h up to 48 h. Aliquots were poured into a mixture of CH3CN:H2O (1:1; 200 µL) to precipitate the HBS proteins. The samples were cooled on ice for 30 min and centrifuged at 4’4 00 rpm for 10 min. The supernatant was analyzed by LCMS.
Figure S10. Stability of 8 in human blood serum.

| Compound | effect of compound alone on cell viability, in words (HT-29 cells [1]) | viability of Pb-poisoned cells relative to the negative control (recovery) (Pb-poisoned HT-29 cells [2]) | recovery of Pb-poisoned cells, in words (Pb-poisoned HT-29 cells [2]) | further results |
| --- | --- | --- | --- | --- |
| O=C(O)CN(CCN(CC(=O)O)CC(=O)O)CC(=O)O [EDTA, ethylenediaminetetraacetic acid, reference compound] | slight toxicity |  |  |  |
| O=C1CC[C@@H](C(=O)O)NC(=O)[C@H](CS(=O)(=O)O)NC(=O)CNC(=O)[C@H](CS)NC(=O)CC[C@@H](C(=O)O)NC(=O)[C@H](CS(=O)(=O)O)NC(=O)CNC(=O)[C@H](CS)N1 [peptide 9] (cyclo(CG[Cya][γGlu]CG[Cya][γGlu])) | no toxicity at all | approximately 2.5 times |  |  |
| C[C@@H]1NC(=O)CNC(=O)[C@H](CS)NC(=O)C[C@@H](C(=O)O)NC(=O)[C@H](C)NC(=O)CNC(=O)[C@H](CS)NC(=O)C[C@@H](C(=O)O)NC1=O [peptide 5] (cyclo(A[βAsp]CGA[βAsp]CG)) |  |  | least active one |  |
| NC(=O)C[C@@H]1NC(=O)CNC(=O)[C@H](CS)NC(=O)CC[C@@H](C(=O)O)NC(=O)[C@H](CC(N)=O)NC(=O)CNC(=O)[C@H](CS)NC(=O)CC[C@@H](C(=O)O)NC1=O [peptide 8] (cyclo(CGN[γGlu]CGN[γGlu])) | positively affect cell viability | approximately 2.5 times |  | oxidative stress (ROS) compared with untreated cells, in words (HT-29 cells [3]): decreased the oxidative stress compared to untreated cells; supernatant-to-cells ratio of Pb compared with cells not treated with peptide, in words (Pb-poisoned HT-29 cells [4]; 8 added pre- or post-poisoning): reduced by approximately half; SN/C, ratio of Pb content in ppb in supernatants and cells (Pb-poisoned HT-29 cells [4]; condition 3: HT-29 poisoned with 0.2 mM Pb(NO3)2 1 h, then 1 mM 8, further 23 h): 56.3 ± 27.5; SN/C, ratio of Pb content in ppb in supernatants and cells (Pb-poisoned HT-29 cells [4]; condition 4: HT-29 given 1 mM 8 for 1 h, then 0.2 mM Pb(NO3)2, further 23 h): 43.3 ± 10.23; time within which oxidation started [5]: ≤ 2 h; thiols still reduced ([5]; after 24 h, 3 wells): roughly 40%; time stable in human blood serum [6]: at least 48 h |
| C[C@@H]1NC(=O)CNC(=O)[C@H](CS)NC(=O)CC[C@@H](C(=O)O)NC(=O)[C@H](C)NC(=O)CNC(=O)[C@H](CS)NC(=O)CC[C@@H](C(=O)O)NC1=O [peptide 2] (cyclo(A[γGlu]CGA[γGlu]CG)) |  |  | enhanced viability of cells treated with 1 mM of 2 compared with lin2 |  |
